# Experimental data reported in patent US9169241B2, “Quinolinyloxyphenylsulfonamides” (Max-Planck-Gesellschaft Zur Forderung der Wissenschaften …, priority 2009, dated 2015).
# pIC50: −log10 of the molar value. Where two headings read alike, the source gives them in different places.
# Key:
# cells = assay: Boyden chamber migration assay (Table VI); assay type: cell-based; conditions: Homo sapiens, Hs-578T, 16 h, Hs578T cells; 16 h migration
# Procedure: The Boyden chamber assay is based on a chamber of two medium-filled compartments separated by a microporous membrane of 8 μM (Cell culture insert 8.0 μM pore size, BD Biosciences, Bedford, Mass.). The boyden chamber migration assays were carried out according to the supplier's instructions. In general, 20000 cells are placed in the upper compartment with medium containing 0% FCS plus 0.1% BSA and are allowed to migrate 16 h through the pores of the membrane into the lower compartment, which is filled with cell culture medium containing 10% FCS as chemotactic agents. The cells remaining in the insert were removed with a cotton swab, and the cells on the bottom of the filter were fixed and counted. (Zhang Y X, et al. AXL is a potential target for therapeutic intervention in breast cancer progression. Cancer Res. 2008; 68:1905-15).
# viable cells in culture = assay: Cell viability assay at 10 μM (CellTiter-Glo, Table VII); assay type: cell-based; conditions: compound 10 μM, 72 h;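 note: graded A 0-20%; B 21-40%; C 41-60%; D over 60% viable cells relative to DMSO control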
# Method in brief: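 Cells were seeded at 1000 cells/well in 96-well plates in 100 μl culture medium and incubated for 72 h with 10 μM compound or a DMSO control. ATP content, which reflects metabolically active and therefore viable cells, was then determined by CellTiter-Glo luminescence (Promega) per the manufacturer's instructions and expressed relative to the DMSO control.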
# Hs578T [1] = assay: Matrigel outgrowth assay/branching assay; assay type: cell-based; conditions: Homo sapiens, Hs-578T; HS578T cell line; Table Ib; read-out: Total branching inhibition in Matrigel HS578T
# Method in brief: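 Cells (5000/well) were seeded onto polymerized 3 mg/ml Matrigel with compound at 3.125, 1.56 or 0.78 μM versus DMSO. Branching was imaged by inverted microscopy (5× objective) at 48, 72 and 96 h. Only concentrations giving total branching inhibition scored positive.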
# indicated cell line = assay: Wound healing migration assay (Table IV); assay type: cell-based; conditions: compounds at 12.5, 6.25, 3.125 μM, 48 h-72 h
# Procedure: This method mimics cell migration during wound healing in vivo. The basic steps involve creating a “wound” in a cell monolayer, capturing the images at the beginning and at regular intervals during cell migration to close the wound, and comparing the images to quantify the migration rate of the cells. In detail, 150000 cell/24 well have been seeded and allowed to form a monolayer overnight. Subsequently a “wound” or “scratch” has been performed with a 1000 μl pipette tip. The STDV of wound size is normally below 10% at time point t0. The assay was stopped by fixation with 0.05% Crystal violet/20% methanol when control scratches were closed. The assay was terminated between 48 h and 72 h depending on the migration potential of the indicated cell line. The “wounds” were visualized with a Zeiss Axiovert S100 microscope (Carl Zeiss UK, Welwyn Garden City, UK). The tested compounds were used at 12.5 μM, 6.25, 3.125 μM and DMSO control. IC50 values have been calculated as 50% wound size in between t0 and t48 or t72.
# tumor cell = assay: Matrigel outgrowth assay/branching assay (Table Va); assay type: cell-based
# Procedure: The Matrigel outgrowth assay is based on the ability of tumor cell to penetrate a solid gel of extracellular matrix proteins mimicking the metastasis formation in vivo. While cells with low invasive potential appear as roundish cell or cell cluster, cells with high invasive potential penetrate the Matrigel and form polymorphic structures. In detail 65 μl of Matrigel matrix (Matrigel™ Matrix, BD Biosciences, Bedford, Mass., USA) with a concentration of 3 mg/ml have been polymerized in 96 well plates for 1 h at 37° C. Subsequently 5000 cell/well were seeded into each well containing cell culture medium and indicated compound with concentrations of 3.125 μM, 1.56 μM and 0.78 μM as well as DMSO control. After 48 h, 72 h and 96 h images of cell were taken on an inverted microscope using a 5× objective (Zeiss Axiovert S100 microscope Carl Zeiss UK, Welwyn Garden City, UK). Only compound concentrations were total branching inhibition was evident were accounted as positive. Method was used as previously described, with some modifications (Thompson E W, et al. Association of increased basement membrane invasiveness with absence of estrogen receptor and expression of vimentin in human breast cancer cell lines. J Cell Physiol 1992; 150:534-44).
# C8161 = assay: Apoptosis assay (Cellomics, nucleus condensation); assay type: cell-based; conditions: Homo sapiens, Table III, read-out: Apoptosis induction in C8161
# Source text: (§1) The Cellomics BioApplication (Thermo Fischer Cellomics Products, Pittsburgh, Pa.) is an automated image analysis algorithm that provides detailed analysis of phenotypes related to apoptosis. As one of the most prominent characteristics of apoptotics cell a nucleus condensation takes place. This can be measured fluorescence signal intensity using a CCD camera on fully automated microscope system. The Cellomics system is able to quantify the fluorescence intensity per single nucleus and calculates the variation of signal intensity in each cell population. […] Additionally the number of detected cell decreases normally in apoptotic cell populations. In detail 5000 cell per 96 well were labeled with DNA intercalating dye (Hoechst 33342, Sigma, Steinheim, Germany) to visualize the nucleus in a fluorescence microscope under live conditions. The apoptosis assay was performed 24 h and 48 h after addition of compound at concentrations 12.5 μM, 6.25 μM, 3.125 μM, 1.56 μM, 0.78 μM, 0.39 μM as well as DMSO control for 48 h.
# Hs578T [2] = assay: Apoptosis assay (Cellomics, nucleus condensation); assay type: cell-based; conditions: Homo sapiens, Hs-578T, Table III, read-out: Apoptosis induction in Hs578T
# Source text: as §1
# U138 = assay: Apoptosis assay (Cellomics, nucleus condensation); assay type: cell-based; conditions: Table III, read-out: Apoptosis induction in U138
# Source text: as §1
# SF763 = assay: Apoptosis assay (Cellomics, nucleus condensation); assay type: cell-based; conditions: Table III, read-out: Apoptosis induction in SF763
# Source text: as §1
# SF126 = assay: Apoptosis assay (Cellomics, nucleus condensation); assay type: cell-based; conditions: Homo sapiens, SF-126, Table III, read-out: Apoptosis induction in SF126
# Source text: as §1
# U118 = assay: Apoptosis assay (Cellomics, nucleus condensation); assay type: cell-based; conditions: Table III, read-out: Apoptosis induction in U118
# Source text: as §1
# [3] = Homo sapiens, HCT-116, HCT116 def, read-out: percentage (%) of viable cells HCT 116def
# [4] = Homo sapiens, HCT-116, HCT116 wt, read-out: percentage (%) of viable cells HCT 116wt
# [5] = Homo sapiens, HT-29, HT29, read-out: percentage (%) of viable cells HT29
# [6] = Homo sapiens, NCI-H358, H358, read-out: percentage (%) of viable cells H358
# [7] = Homo sapiens, NCI-H1650, H1650, read-out: percentage (%) of viable cells H1650
# [8] = Homo sapiens, NCI-H1666, H1666, read-out: percentage (%) of viable cells H1666
# [9] = Homo sapiens, NCI-H1975, H1975, read-out: percentage (%) of viable cells H1975
# [10] = Homo sapiens, NCI-H1993, H1993, read-out: percentage (%) of viable cells H1993
# [11] = Homo sapiens, A549, read-out: percentage (%) of viable cells A549
# [12] = Homo sapiens, HCC827, read-out: percentage (%) of viable cells HCC827
# [13] = Homo sapiens, SW480, read-out: percentage (%) of viable cells SW480
# [14] = RKO, read-out: percentage (%) of viable cells RKO
# [15] = Homo sapiens, C8161 cells, read-out: IC50 Wound healing Assay C8161
# [16] = SF763 cells, read-out: IC50 Wound healing Assay SF763
# [17] = Homo sapiens, C8161 cells, read-out: Total branching inhibition in Matrigel C8161
# [18] = Homo sapiens, Hs-578T, Hs578T cells, read-out: Total branching inhibition in Matrigel Hs578T
# [19] = U118 cells, read-out: Total branching inhibition in Matrigel U118
# [20] = U138 cells, read-out: Total branching inhibition in Matrigel U138
pIC50 (cells),melting point [°C],pIC50 (indicated cell line; [15]),pIC50 (indicated cell line; [16]),pIC50 (tumor cell; [17]),pIC50 (tumor cell; [18]),pIC50 (tumor cell; [19]),Compound,viability at 10 µM (viable cells in culture; [3]) [%],viability at 10 µM (viable cells in culture; [4]) [%],viability at 10 µM (viable cells in culture; [5]) [%],viability at 10 µM (viable cells in culture; [6]) [%],viability at 10 µM (viable cells in culture; [7]) [%],viability at 10 µM (viable cells in culture; [8]) [%],viability at 10 µM (viable cells in culture; [9]) [%],viability at 10 µM (viable cells in culture; [10]) [%],viability at 10 µM (viable cells in culture; [11]) [%],viability at 10 µM (viable cells in culture; [12]) [%],viability at 10 µM (viable cells in culture; [13]) [%],viability at 10 µM (viable cells in culture; [14]) [%],pIC50 (Hs578T [1]),further results
≥ 5.30,167 to 169,≥ 4.90,4.30 to 4.90,≥ 5.30,≥ 5.30,≥ 5.30,"COc1cc(S(=O)(=O)Nc2ccc(Oc3ccnc4cc(OCCCN5CCN(C)CC5)c(OC)cc34)c(F)c2)ccc1F [Example 18, 4-Fluoro-N-(3-fluoro-4-{6-methoxy-7-[3-(4-methyl-piperazin-1-yl)-propoxy]-quinolin-4-yloxy}-phenyl)-3-methoxy-benzenesulfonamide]",0 to 20,0 to 20,0 to 20,0 to 20,21 to 40,21 to 40,0 to 20,0 to 20,21 to 40,21 to 40,0 to 20,0 to 20,≥ 5.00,pIC50 (tumor cell; [20]): ≥ 5.30; pIC50 (C8161): ≥ 4.90; pIC50 (Hs578T [2]): ≥ 4.90; pIC50 (U138): ≥ 4.90; pIC50 (SF763): ≥ 4.90; pIC50 (SF126): ≥ 4.90; pIC50 (U118): ≥ 4.90
≥ 5.30,106 to 110,4.30 to 4.90,≥ 4.90,≥ 5.30,≥ 5.30,≥ 5.30,"COc1cc2c(Oc3ccc(NS(=O)(=O)c4ccc(Cl)cc4F)cc3F)ccnc2cc1OCCCN1CCN(C)CC1 [Example 27, 4-Chloro-2-fluoro-N-(3-fluoro-4-{6-methoxy-7-[3-(4-methyl-piperazin-1-yl)-propoxy]-quinolin-4-yloxy}-phenyl)-benzenesulfonamide]",0 to 20,0 to 20,21 to 40,0 to 20,41 to 60,41 to 60,21 to 40,0 to 20,> 60,> 60,0 to 20,0 to 20,≥ 5.00,pIC50 (tumor cell; [20]): ≥ 5.30; pIC50 (C8161): ≥ 4.90; pIC50 (Hs578T [2]): ≥ 4.90; pIC50 (U138): ≥ 4.90; pIC50 (SF763): ≥ 4.90; pIC50 (SF126): 4.30 to 4.90; pIC50 (U118): ≥ 4.90
≥ 5.30,73 to 75,≥ 4.90,≥ 4.90,≥ 5.30,4.30 to 5.30,≥ 5.30,"COc1cc2c(Oc3ccc(NS(=O)(=O)c4ccccc4C)cc3F)ccnc2cc1OCCCN1CCN(C)CC1 [Example 28, N-(3-Fluoro-4-{6-methoxy-7-[3-(4-methyl-piperazin-1-yl)-propoxy]-quinolin-4-yloxy}-phenyl)-2-methyl-benzenesulfonamide]",21 to 40,21 to 40,21 to 40,0 to 20,21 to 40,41 to 60,21 to 40,21 to 40,21 to 40,21 to 40,0 to 20,0 to 20,4.60 to 5.00,pIC50 (tumor cell; [20]): ≥ 5.30; pIC50 (C8161): ≥ 4.90; pIC50 (Hs578T [2]): ≥ 4.90; pIC50 (U138): ≥ 4.90; pIC50 (SF763): ≥ 4.90; pIC50 (SF126): ≥ 4.90; pIC50 (U118): ≥ 4.90

Compound,pIC50 (cells),melting point [°C],pIC50 (indicated cell line; [15]),pIC50 (indicated cell line; [16]),pIC50 (tumor cell; [17]),pIC50 (tumor cell; [18]),pIC50 (tumor cell; [19]),viability at 10 µM (viable cells in culture; [3]) [%],viability at 10 µM (viable cells in culture; [4]) [%],viability at 10 µM (viable cells in culture; [5]) [%],viability at 10 µM (viable cells in culture; [6]) [%],viability at 10 µM (viable cells in culture; [7]) [%],viability at 10 µM (viable cells in culture; [8]) [%],viability at 10 µM (viable cells in culture; [9]) [%],viability at 10 µM (viable cells in culture; [10]) [%],viability at 10 µM (viable cells in culture; [11]) [%],viability at 10 µM (viable cells in culture; [12]) [%],viability at 10 µM (viable cells in culture; [13]) [%],viability at 10 µM (viable cells in culture; [14]) [%],pIC50 (Hs578T [1]),further results
"COc1cc2c(Oc3ccc(NS(=O)(=O)c4cc(F)ccc4F)cc3F)ccnc2cc1OCCCCN1CCOCC1 [Example 83, 2,5-Difluoro-N-{3-fluoro-4-[6-methoxy-7-(4-morpholin-4-yl-butoxy)-quinolin-4-yloxy]-phenyl}-benzenesulfonamide]",≥ 5.30,156 to 158,≥ 4.90,≥ 4.90,≥ 5.30,≥ 5.30,≥ 5.30,21 to 40,0 to 20,0 to 20,0 to 20,21 to 40,21 to 40,41 to 60,0 to 20,21 to 40,0 to 20,21 to 40,> 60,≥ 5.00,pIC50 (tumor cell; [20]): ≥ 5.30; pIC50 (C8161): ≥ 4.90; pIC50 (Hs578T [2]): ≥ 4.90; pIC50 (U138): ≥ 4.90; pIC50 (SF763): ≥ 4.90; pIC50 (SF126): ≥ 4.90; pIC50 (U118): ≥ 4.90
